The values below come from patent publication US20150011463A1, “AGENT FOR PREVENTING OR AM[…] ENDOTHELIAL MALFUNCTION” (KYOWA HAKKO BIO CO., LTD., priority 2012, published 2015).

In the assay the test system is normal human umbilical vein endothelial cell (HUVEC). The experiment in a line: NO production (nitrite in culture supernatant by HPLC) in HUVEC. It counts as cell-based. To be noted: citrulline final concentration 0.3 mM, 24-hour culture, vs control (PBS). As for the experimental part: The cells were cultured in at 37° C., in 5% CO2 incubator, and used for experiment after 4 to 6 passages. Citrulline and reduced glutathione were obtained from Kyowa Hakko Bio.
A cell suspension (0.45 mL) with the adjusted initial cell concentration of 5×10^5 cells/mL was inoculated in a 24-well plate (IWAKI). After 40-hour culture, the media were replaced with those containing citrulline (final concentration 0.3 mM: citrulline group), reduced glutathione (final concentration 1 mM: high-dose glutathione group), and a citrulline and reduced glutathione mixture (citrulline final concentration 0.3 mM; glutathione final concentration 0.3 mM: citrulline+low-dose glutathione group). Media with the sole addition of solvent (PBS) were used as a control group. After 24-hour culture, the cell culture (100 μL) was centrifuged at 12,000 rpm for 10 minutes, and the concentration of nitrite (NO2), which is the stable NO metabolite, in culture supernatant was quantified by HPLC (ENO-20, EICOM).

Regarding `NC(=O)NCCC[C@H](N)C(=O)O` [citrulline], the “effect on NO production (concentration of nitrite (NO2) in culture supernatant)” value is “no effect”.
